Measured values as given in patent publication US4278681A, “Antibacterial amide compounds and means for using the same” (Warner-Lambert Co., priority 1980, dated 1981).
Values after ≈ are worked out from the molar mass of the structure shown.

Columns and labels:
Assay in all cases: Minimal Inhibitory Concentration by Microtitration, dilution in TSB
Type in all cases: cell-based
[1] = test system: Enterobacter cloacae IMM-11; conditions: IMM11, TSB (Trypticase soy broth)
Text: (§1) Minimal Inhibitory Concentration by Microtitration (μg/ml)
(§2) Dilution in TSB (Trypticase soy broth).

[2] = test system: Klebsiella pneumoniae MGH-2; conditions: MGH2, TSB (Trypticase soy broth)
Text: as §1, §2

[3] = test system: Pseudomonas aeruginosa BRK 12-4-4; conditions: BRK1244, TSB (Trypticase soy broth)
Text: as §1, §2

[4] = test system: Pseudomonas aeruginosa UI-18; conditions: UI18, TSB (Trypticase soy broth)
Text: as §1, §2

[5] = test system: Serratia marcescens IMM-16; conditions: IMM16, TSB (Trypticase soy broth)
Text: as §1, §2

Compound	MIC [1] [µg/mL]	MIC [2] [µg/mL]	MIC [3] [µg/mL]	MIC [4] [µg/mL]	MIC [5] [µg/mL]
CC(=O)N[C@@H](C)C(=O)Nc1ccc(-c2ccc(C(=O)N[C@@H](C(=O)N[C@@H]3C(=O)N4[C@@H]3SC(C)(C)[C@@H]4C(=O)O)c3ccc(O)cc3)c(=O)[nH]2)cc1	1.6 (≈ 2.32 µM)	3.1 (≈ 4.49 µM)	1.6 (≈ 2.32 µM)	0.8 (≈ 1.16 µM)	3.1 (≈ 4.49 µM)
CC(=O)NCCCC(=O)Nc1ccc(-c2ccc(C(=O)N[C@@H](C(=O)N[C@@H]3C(=O)N4[C@@H]3SC(C)(C)[C@@H]4C(=O)O)c3ccc(O)cc3)c(=O)[nH]2)cc1	6.3 (≈ 8.94 µM)	3.1 (≈ 4.4 µM)	3.1 (≈ 4.4 µM)	1.6 (≈ 2.27 µM)	3.1 (≈ 4.4 µM)
CC(=O)N1CCC[C@H]1C(=O)Nc1ccc(-c2ccc(C(=O)N[C@@H](C(=O)N[C@@H]3C(=O)N4[C@@H]3SC(C)(C)[C@@H]4C(=O)O)c3ccc(O)cc3)c(=O)[nH]2)cc1	6.3 (≈ 8.79 µM)	12.5 (≈ 17.4 µM)	1.6 (≈ 2.23 µM)	1.6 (≈ 2.23 µM)	6.3 (≈ 8.79 µM)
CC(=O)N[C@@H](CCC(N)=O)C(=O)Nc1ccc(-c2ccc(C(=O)N[C@@H](C(=O)N[C@@H]3C(=O)N4[C@@H]3SC(C)(C)[C@@H]4C(=O)O)c3ccc(O)cc3)c(=O)[nH]2)cc1	3.1 (≈ 4.15 µM)	12.5 (≈ 16.7 µM)	3.1 (≈ 4.15 µM)	1.6 (≈ 2.14 µM)	3.1 (≈ 4.15 µM)
CC(=O)N1CC(O)C[C@H]1C(=O)Nc1ccc(-c2ccc(C(=O)N[C@@H](C(=O)N[C@@H]3C(=O)N4[C@@H]3SC(C)(C)[C@@H]4C(=O)O)c3ccc(O)cc3)c(=O)[nH]2)cc1 (some centres unmarked)	3.1 (≈ 4.23 µM)	12.5 (≈ 17.1 µM)	3.1 (≈ 4.23 µM)	1.6 (≈ 2.18 µM)	6.3 (≈ 8.6 µM)
C[C@H](NC=O)C(=O)Nc1ccc(-c2ccc(C(=O)N[C@@H](C(=O)N[C@@H]3C(=O)N4[C@@H]3SC(C)(C)[C@@H]4C(=O)O)c3ccc(O)cc3)c(=O)[nH]2)cc1	3.1 (≈ 4.58 µM)	6.3 (≈ 9.31 µM)	1.6 (≈ 2.36 µM)	1.6 (≈ 2.36 µM)	3.1 (≈ 4.58 µM)
CC(=O)N[C@@H](C)C(=O)N[C@@H](C)C(=O)Nc1ccc(-c2ccc(C(=O)N[C@@H](C(=O)N[C@@H]3C(=O)N4[C@@H]3SC(C)(C)[C@@H]4C(=O)O)c3ccc(O)cc3)c(=O)[nH]2)cc1	12.5 (≈ 16.4 µM)	25 (≈ 32.8 µM)	6.3 (≈ 8.27 µM)	3.1 (≈ 4.07 µM)	6.3 (≈ 8.27 µM)
CC1(C)S[C@@H]2[C@H](NC(=O)[C@H](NC(=O)c3ccc(-c4ccc(NC(=O)[C@@H]5CCC(=O)N5)cc4)[nH]c3=O)c3ccc(O)cc3)C(=O)N2[C@H]1C(=O)O	1.6 (≈ 2.32 µM)	6.3 (≈ 9.15 µM)	1.6 (≈ 2.32 µM)	3.1 (≈ 4.5 µM)	3.1 (≈ 4.5 µM)
C[C@H](NC(N)=O)C(=O)Nc1ccc(-c2ccc(C(=O)N[C@@H](C(=O)N[C@@H]3C(=O)N4[C@@H]3SC(C)(C)[C@@H]4C(=O)O)c3ccc(O)cc3)c(=O)[nH]2)cc1	6.3 (≈ 9.11 µM)	6.3 (≈ 9.11 µM)	1.6 (≈ 2.31 µM)	1.6 (≈ 2.31 µM)	3.1 (≈ 4.48 µM)
CC(=O)OC1C[C@@H](C(=O)Nc2ccc(-c3ccc(C(=O)N[C@@H](C(=O)N[C@@H]4C(=O)N5[C@@H]4SC(C)(C)[C@@H]5C(=O)O)c4ccc(O)cc4)c(=O)[nH]3)cc2)N(C(C)=O)C1 (some centres unmarked)	6.3 (≈ 8.13 µM)	12.5 (≈ 16.1 µM)	1.6 (≈ 2.07 µM)	1.6 (≈ 2.07 µM)	6.3 (≈ 8.13 µM)
CC(=O)N1CC(=O)C[C@H]1C(=O)Nc1ccc(-c2ccc(C(=O)N[C@@H](C(=O)N[C@@H]3C(=O)N4[C@@H]3SC(C)(C)[C@@H]4C(=O)O)c3ccc(O)cc3)c(=O)[nH]2)cc1	12.5 (≈ 17.1 µM)	25 (≈ 34.2 µM)	6.3 (≈ 8.62 µM)	3.1 (≈ 4.24 µM)	12.5 (≈ 17.1 µM)
CC(=O)O[C@@H]1C[C@H](C(=O)Nc2ccc(-c3ccc(C(=O)N[C@@H](C(=O)N[C@@H]4C(=O)N5[C@@H]4SC(C)(C)[C@@H]5C(=O)O)c4ccc(O)cc4)c(=O)[nH]3)cc2)N(C(C)=O)C1	12.5 (≈ 16.1 µM)	25 (≈ 32.3 µM)	6.3 (≈ 8.13 µM)	3.1 (≈ 4 µM)	12.5 (≈ 16.1 µM)
COC1C[C@@H](C(=O)Nc2ccc(-c3ccc(C(=O)N[C@@H](C(=O)N[C@@H]4C(=O)N5[C@@H]4SC(C)(C)[C@@H]5C(=O)O)c4ccc(O)cc4)c(=O)[nH]3)cc2)N(C(C)=O)C1 (some centres unmarked)	12.5 (≈ 16.7 µM)	25 (≈ 33.5 µM)	6.3 (≈ 8.44 µM)	3.1 (≈ 4.15 µM)	12.5 (≈ 16.7 µM)
CC(=O)N1CC=CC1C(=O)Nc1ccc(-c2ccc(C(=O)N[C@@H](C(=O)N[C@@H]3C(=O)N4[C@@H]3SC(C)(C)[C@@H]4C(=O)O)c3ccc(O)cc3)c(=O)[nH]2)cc1 (some centres unmarked)	6.3 (≈ 8.81 µM)	12.5 (≈ 17.5 µM)	3.1 (≈ 4.34 µM)	3.1 (≈ 4.34 µM)	12.5 (≈ 17.5 µM)
CC(=O)N1CC(OC=O)C[C@H]1C(=O)Nc1ccc(-c2ccc(C(=O)N[C@@H](C(=O)N[C@@H]3C(=O)N4[C@@H]3SC(C)(C)[C@@H]4C(=O)O)c3ccc(O)cc3)c(=O)[nH]2)cc1 (some centres unmarked)	1.6 (≈ 2.1 µM)	6.3 (≈ 8.28 µM)	0.8 (≈ 1.05 µM)	0.8 (≈ 1.05 µM)	6.3 (≈ 8.28 µM)
CCC(=O)OC1C[C@@H](C(=O)Nc2ccc(-c3ccc(C(=O)N[C@@H](C(=O)N[C@@H]4C(=O)N5[C@@H]4SC(C)(C)[C@@H]5C(=O)O)c4ccc(O)cc4)c(=O)[nH]3)cc2)N(C(C)=O)C1 (some centres unmarked)	6.3 (≈ 7.99 µM)	12.5 (≈ 15.8 µM)	3.1 (≈ 3.93 µM)	1.6 (≈ 2.03 µM)	6.3 (≈ 7.99 µM)
CN1C(=O)CC[C@H]1C(=O)Nc1ccc(-c2ccc(C(=O)N[C@@H](C(=O)N[C@@H]3C(=O)N4[C@@H]3SC(C)(C)[C@@H]4C(=O)O)c3ccc(O)cc3)c(=O)[nH]2)cc1	3.1 (≈ 4.41 µM)	6.3 (≈ 8.96 µM)	1.6 (≈ 2.28 µM)	0.8 (≈ 1.14 µM)	6.3 (≈ 8.96 µM)
CC(=O)NCCCC[C@H](NC(C)=O)C(=O)Nc1ccc(-c2ccc(C(=O)N[C@@H](C(=O)N[C@@H]3C(=O)N4[C@@H]3SC(C)(C)[C@@H]4C(=O)O)c3ccc(O)cc3)c(=O)[nH]2)cc1	12.5 (≈ 15.8 µM)	25 (≈ 31.7 µM)	6.3 (≈ 7.98 µM)	6.3 (≈ 7.98 µM)	50 (≈ 63.3 µM)
CC1(C)S[C@@H]2[C@H](NC(=O)[C@H](NC(=O)c3ccc(-c4ccc(NC(=O)CN5CCCC5=O)cc4)[nH]c3=O)c3ccc(O)cc3)C(=O)N2[C@H]1C(=O)O	3.1 (≈ 4.41 µM)	6.3 (≈ 8.96 µM)	3.1 (≈ 4.41 µM)	3.1 (≈ 4.41 µM)	6.3 (≈ 8.96 µM)
